From BindingDB's records for doi:10.1021/bi401014k (Texas A&M University, 2013)

Columns and labels:
Assay in all cases: ANS Fluorescence Displacement Assay
[1] = molecular target: T1, Fatty acid-binding protein, liver (Rattus norvegicus, UniProt P02692)
T1 sequence (P02692 whole entry): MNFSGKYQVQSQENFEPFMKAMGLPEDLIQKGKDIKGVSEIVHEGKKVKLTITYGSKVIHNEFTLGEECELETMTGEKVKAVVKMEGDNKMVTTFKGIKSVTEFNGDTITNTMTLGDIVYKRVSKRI
Method: (§1) A solution of the L-FABP (500 nM) and ANS (35 µM) was titrated with phytanic acid (0-6.4 µM) or fenofibrate (0-6 µM for the rat L-FABP and 0-4 µM for the human L-FABP) or fenofibric acid (0-300 µM for the rat L-FABP and 0-48 µM for the human L-FABP).

[2] = molecular target: Fatty acid-binding protein, liver [T94A] (Homo sapiens, UniProt P07148, T94A)
Chain of Fatty acid-binding protein, liver [T94A] (P07148 whole entry T94A): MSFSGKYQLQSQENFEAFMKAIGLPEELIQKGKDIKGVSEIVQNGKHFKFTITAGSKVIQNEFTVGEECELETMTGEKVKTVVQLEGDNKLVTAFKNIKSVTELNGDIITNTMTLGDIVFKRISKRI
Method: as §1

[3] = molecular target: T2, Fatty acid-binding protein, liver (Homo sapiens, UniProt P07148)
T2 sequence (P07148 whole entry): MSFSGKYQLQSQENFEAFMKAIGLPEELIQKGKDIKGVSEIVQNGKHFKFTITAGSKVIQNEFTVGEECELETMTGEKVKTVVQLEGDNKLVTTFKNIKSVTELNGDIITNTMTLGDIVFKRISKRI
Method: as §1

Row | Compound | Ki [1] [nM] | Ki [2] [nM] | Ki [3] [nM]
1 | CC(C)CCC[C@H](C)CCC[C@H](C)CCC[C@@H](C)CC(=O)O [3,7,11,15-tetramethylhexadecanoic acid] | 37 | 38 | 35
2 | CC(C)(Oc1ccc(C(=O)c2ccc(Cl)cc2)cc1)C(=O)O [alpha-1081] | 5800 | 310 | 250
3 | CC(C)OC(=O)C(C)(C)Oc1ccc(C(=O)c2ccc(Cl)cc2)cc1 [Finofibrate] | 100 | 15 | 15
